Laboratory results published in ChEMBL document CHEMBL1201862, “PubChem BioAssay data set” (2004).
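Assay format: 96-well plates, 48-hour exposure. GI50 is the concentration that inhibits growth by half.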 Activity calls are given as the source filed them. Cut-off read from the data, not from the text of the source: active = GI50 up to about 1.1 µM and inactive = higher.

Tests used:
Experiment in all cases: DTP human tumour cell line panel, 48 h
CAKI-1 = test system: CAKI-1
786-0 = test system: 786-0
UACC-257 = test system: UACC-257
SF-295 = test system: SF-295
RXF 393 = test system: RXF 393
IGROV-1 = test system: IGROV-1
RPMI-8226 = test system: RPMI-8226
HT-29 = test system: HT-29
K562 = test system: K562
COLO 205 = test system: COLO 205
UO-31 = test system: UO-31
A549 = test system: A549
TK-10 = test system: TK-10
HL-60 = test system: HL-60
A498 = test system: A498
HCC 2998 = test system: HCC 2998
HOP-92 = test system: HOP-92
SR = test system: SR

Measured: GI50

Cc1ccc(-c2cc(=O)c3cc(C)c(C)c(C(=O)O)c3o2)cc1N
inactive: CAKI-1 > 100 µM | 786-0 > 100 µM | UACC-257 > 100 µM | SF-295 > 100 µM | RXF 393 > 100 µM | IGROV-1 > 100 µM | RPMI-8226 > 100 µM | HT-29 > 100 µM | K562 > 100 µM | COLO 205 > 100 µM | UO-31 > 100 µM | A549 > 100 µM | TK-10 > 100 µM

CC(=O)C1C(c2ccccc2)C2(C)OC(=O)C(C#N)C12C (stereo unspecified)
inactive: 786-0 > 100 µM | SF-295 > 100 µM | RXF 393 > 100 µM | IGROV-1 > 100 µM | RPMI-8226 > 100 µM | K562 > 100 µM | COLO 205 > 100 µM | HL-60 > 100 µM | UO-31 > 100 µM | A549 > 100 µM | TK-10 > 100 µM

CCOC(=O)C(C(=O)OCC)=C1C=C(c2ccccc2)c2ccccc21
inactive: 786-0 28.5 µM | UACC-257 73.1 µM | SF-295 31.2 µM | RXF 393 40.2 µM | IGROV-1 > 100 µM | RPMI-8226 16.6 µM | HT-29 42.8 µM | K562 36.6 µM | COLO 205 54.2 µM | A498 13.4 µM | HL-60 20.5 µM | UO-31 > 100 µM | HCC 2998 7.29 µM | A549 79.3 µM | TK-10 79.1 µM | HOP-92 8.09 µM

CC(=O)SC(SC(C)=O)SC(C)=O
inactive: 786-0 > 100 µM | UACC-257 55 µM | RXF 393 > 100 µM | IGROV-1 > 100 µM | HT-29 24.7 µM | K562 54.5 µM | COLO 205 27.3 µM | A498 > 100 µM | HL-60 51.3 µM | UO-31 > 100 µM | HCC 2998 > 100 µM | A549 37.2 µM | TK-10 > 100 µM

C[C@]12CCC(=O)C(O)=C1CC[C@@H]1C2CC[C@]2(C)Nc3c(cnn3-c3ccccc3)CC12 (stereo partly specified)
inactive: CAKI-1 56.9 µM | 786-0 > 100 µM | UACC-257 39 µM | SF-295 52.7 µM | RXF 393 55.1 µM | IGROV-1 > 100 µM | RPMI-8226 27.4 µM | HT-29 39.4 µM | K562 40.6 µM | A498 > 100 µM | HL-60 23.8 µM | UO-31 26.3 µM | HCC 2998 > 100 µM | A549 > 100 µM | TK-10 > 100 µM

c1ccc2c(c1)CCCc1cc3ccccc3nc1-2
inactive: CAKI-1 > 100 µM | 786-0 > 100 µM | UACC-257 54.8 µM | SF-295 > 100 µM | IGROV-1 > 100 µM | RPMI-8226 31 µM | HT-29 46.3 µM | K562 > 100 µM | COLO 205 29.9 µM | A498 79.4 µM | UO-31 > 100 µM | HCC 2998 > 100 µM | A549 > 100 µM | TK-10 > 100 µM

C=CCNC(=S)N/C=C1\C(=O)Oc2ccccc2C1=O
inactive: CAKI-1 22.2 µM | 786-0 55 µM | UACC-257 > 100 µM | SF-295 > 100 µM | RXF 393 19.3 µM | IGROV-1 41.6 µM | RPMI-8226 > 100 µM | HT-29 > 100 µM | K562 > 100 µM | COLO 205 > 100 µM | A498 56.8 µM | HL-60 > 100 µM | UO-31 27.5 µM | HCC 2998 68.4 µM | A549 93.8 µM | TK-10 64.7 µM | HOP-92 30.5 µM

COc1ccc(O)cc1C(O)c1ccccc1 (stereo unspecified)
inactive: CAKI-1 > 100 µM | 786-0 > 100 µM | UACC-257 > 100 µM | SF-295 > 100 µM | RXF 393 > 100 µM | IGROV-1 > 100 µM | HT-29 > 100 µM | K562 > 100 µM | COLO 205 > 100 µM | A498 > 100 µM | HL-60 > 100 µM | UO-31 > 100 µM | HCC 2998 > 100 µM | A549 > 100 µM | TK-10 > 100 µM | HOP-92 > 100 µM

NC(CCCNCc1ccccc1O)C(=O)O (stereo unspecified)
inactive: CAKI-1 > 100 µM | 786-0 > 100 µM | UACC-257 > 100 µM | SF-295 > 100 µM | IGROV-1 > 100 µM | RPMI-8226 > 100 µM | HT-29 > 100 µM | K562 > 100 µM | COLO 205 > 100 µM | A498 > 100 µM | HL-60 > 100 µM | UO-31 > 100 µM | A549 > 100 µM | TK-10 > 100 µM | HOP-92 > 100 µM

C=CCC1=C(C)C[C@@H]2CCC(=O)C=C12
inactive: CAKI-1 > 100 µM | 786-0 > 100 µM | UACC-257 > 100 µM | SF-295 > 100 µM | RXF 393 > 100 µM | IGROV-1 > 100 µM | RPMI-8226 > 100 µM | HT-29 > 100 µM | K562 > 100 µM | COLO 205 > 100 µM | A498 > 100 µM | HL-60 > 100 µM | UO-31 > 100 µM | A549 > 100 µM | TK-10 > 100 µM | HOP-92 > 100 µM

CC12OC3(O)C4C5CC(C6C5C3C61)C42 (stereo unspecified)
inactive: CAKI-1 > 100 µM | 786-0 38.3 µM | UACC-257 > 100 µM | SR > 100 µM | RXF 393 > 100 µM | RPMI-8226 > 100 µM | K562 > 100 µM | COLO 205 > 100 µM | HL-60 > 100 µM | UO-31 > 100 µM | HCC 2998 > 100 µM | A549 > 100 µM | TK-10 > 100 µM

C/C(CC(=O)Nc1ccc([N+](=O)[O-])cc1)=N\Nc1ccc([N+](=O)[O-])cc1[N+](=O)[O-]
inactive: 786-0 > 100 µM | UACC-257 47.1 µM | SF-295 47.5 µM | RXF 393 > 100 µM | IGROV-1 71.8 µM | RPMI-8226 56.4 µM | HT-29 > 100 µM | K562 20.2 µM | COLO 205 89.7 µM | A498 59.8 µM | HL-60 31.9 µM | UO-31 20.6 µM | HCC 2998 13.9 µM | A549 44.7 µM | TK-10 > 100 µM | HOP-92 73.6 µM

O=C(NCCO)c1ccc([N+](=O)[O-])cc1
inactive: CAKI-1 > 100 µM | 786-0 > 100 µM | UACC-257 > 100 µM | SF-295 > 100 µM | RXF 393 > 100 µM | IGROV-1 > 100 µM | RPMI-8226 > 100 µM | HT-29 > 100 µM | K562 > 100 µM | COLO 205 > 100 µM | A498 > 100 µM | HL-60 > 100 µM | UO-31 > 100 µM | HCC 2998 > 100 µM | A549 > 100 µM | TK-10 > 100 µM
